# Measured values published in ChEMBL document CHEMBL2203136, “Synthesis, characterization, biological evaluation and QSAR studies of 11-p-substituted phenyl-12-phenyl-11a,12-dihydro-11H-indeno[2,1-c][1,5]benzothiazepines as potential antimicrobial agents” (Eur J Med Chem, 2012).
# Active and inactive are the calls of the source. The calls are words filed in the database; no cut-off is given here.
# Assays:
# [1] = system: Bacillus subtilis; test: Antibacterial activity against Bacillus subtilis MTCC 441 after 24 hrs by serial dilution method
# [2] = system: Aspergillus fumigatus; test: Antifungal activity against Aspergillus fumigatus MTCC 2550 after 72 hrs by serial dilution method; format: functional; settings: for MIC: Aspergillus fumigatus, MTCC 2550, 72 h
# [3] = Octanol-water partition coefficient, log P of the compound; format: physicochemical
# [4] = system: Staphylococcus aureus; test: Antibacterial activity against Staphylococcus aureus MTCC 7443 after 24 hrs by serial dilution method; format: functional; settings: for MIC: Staphylococcus aureus, MTCC 7443, 24 h
# [5] = system: Escherichia coli; test: Antibacterial activity against Escherichia coli MTCC 42 after 24 hrs by serial dilution method; format: functional; settings: for MIC: Escherichia coli, MTCC 42, 24 h
# [6] = system: Aspergillus fumigatus; test: Antifungal activity against Aspergillus fumigatus MTCC 2550 after 72 hrs by serial dilution method relative to 11,12-Diphenyl-11a,12-dihydro-11H-indeno[2,1-c][1,5]benzothiazepine; format: functional
# [7] = system: Pseudomonas aeruginosa; test: Antibacterial activity against Pseudomonas aeruginosa MTCC 7952 after 24 hrs by serial dilution method relative to 11,12-Diphenyl-11a,12-dihydro-11H-indeno[2,1-c][1,5]benzothiazepine; format: functional
# [8] = system: Escherichia coli; test: Antibacterial activity against Escherichia coli MTCC 42 after 24 hrs by serial dilution method relative to 11,12-Diphenyl-11a,12-dihydro-11H-indeno[2,1-c][1,5]benzothiazepine; format: functional
# [9] = system: Pseudomonas aeruginosa; test: Antibacterial activity against Pseudomonas aeruginosa MTCC 7952 after 24 hrs by serial dilution method; format: functional; settings: for MIC: Pseudomonas aeruginosa, MTCC 7952, 24 h
# [10] = system: Staphylococcus aureus; test: Antibacterial activity against Staphylococcus aureus MTCC 7443 after 24 hrs by serial dilution method relative to 11,12-Diphenyl-11a,12-dihydro-11H-indeno[2,1-c][1,5]benzothiazepine; format: functional
# [11] = system: Candida albicans; test: Antifungal activity against Candida albicans MTCC 183 after 72 hrs by serial dilution method relative to 11,12-Diphenyl-11a,12-dihydro-11H-indeno[2,1-c][1,5]benzothiazepine; format: functional
# [12] = system: Candida albicans; test: Antifungal activity against Candida albicans MTCC 183 after 72 hrs by serial dilution method; format: functional; settings: for MIC: Candida albicans, MTCC 183, 72 h
Compound,Activity [1],-logMIC [2],MIC [2],logP [3],-logMIC [4],MIC [4],-logMIC [5],MIC [5],Activity [6],Activity [7],Activity [8],-logMIC [9],MIC [9],Activity [10],Activity [11],-logMIC [12],MIC [12]
Clc1ccc2c(c1)SC(c1ccccc1)C1C(=N2)c2ccccc2C1c1ccccc1 (centres undefined),inactive,1.55,28.5 µM,7.48,1.55,28.5 µM,1.85,14.2 µM,76.99%,7.91%,88.53%,1.24,57 µM,53.95%,53.95%,1.55,28.5 µM
Clc1ccc(C2Sc3cc(Cl)ccc3N=C3c4ccccc4C(c4ccccc4)C32)cc1 (centres undefined),inactive,2.18,6.6 µM,8,1.28,52.9 µM,1.88,13.2 µM,94.67%,-70.92%,89.34%,0.98,106 µM,14.53%,78.67%,1.88,13.2 µM
